Source: US20100069451A1, “SALT OF 3-BENZYL-2-METHYL-2,3,3A,4,5,6,7, 7A- OCTAHYDROBENZO[D]ISOXAZOL-4-ONE” (ABIOGEN PHARMA S.P.A, priority 2006, published 2010)
Structures can show the parent of a compound that is named as a salt. Where two headings read alike, the source gives them in different places.

Tests used:
female CD-1 mice = test: Acute oral toxicity; assay type: in vivo; settings: for Clinical signs / Histopathological examination of kidneys: female CD-1 mice
Experimental: Acute oral toxicity of salts hydrochloride and oxalate of BTG-1640 was evaluated.
The two salts were dispersed in an aqueous suspension, thus obtaining two formulations, each one orally administered through oesophageous gavage at dose of 2000 mg/kg bw (expressed as free base of BTG 1640) to one of two groups comprising three female CD-1 mice per group.
The observation lasted 14 days.

[1] = Stability test of BTG 1640 salts under storage conditions: purity; assay type: physicochemical; settings: for Purity %: time 0 (months)
Experimental: Samples of 100 mg each of BTG 1640 hydrochloride were subjected to the following preservation conditions:
The purities were then analyzed periodically, initially every three months, in order to underline possible variations.
Samples of 100 mg each of BTG 1640 oxalate prepared according to example 1B were subjected to the following preservation conditions:
Quarterly and in an overall period of nine months its purity was then analyzed in order to point out possible variations.
The stabilities were then evaluated by subjecting samples of 100 mg of each salt to the following analogous preservation conditions:
Quarterly and in an overall period of nine months their purity was then analyzed in order to underline possible variations.

[2] = Stability test of BTG 1640 salts under storage conditions: total impurities; assay type: physicochemical; settings: for Impurity profile (in words): condition d): 40° C./75% RH
Experimental: Contemporaneously, the impurity analysis in the conditions a)-d) of T/% RH were carried out.
As a confirmation of such evidence, a test for the evaluation of the impurity percentage of the sample subjected to the same conditions a)-d) of T/% RH was parallely carried out. The experimental values in Table 4 were obtained.

[3] = Absorption kinetic after oral administration: plasma concentration of BTG 1640; assay type: in vivo, rats Sprague Dawley; settings: rat
Experimental: Absorption extent and rate of molecule BTG 1640 in its forms of oxalate and hydrochloride salts were evaluated.
With this intent, the two salts were dispersed in an aqueous suspension of arabic gum at 5% thus obtaining two formulations, each one orally administered through oesophageous gavage at dose of 10 mg/kg (expressed as free base of BTG 1640) to five rats Sprague Dawley.
Plasma concentration of molecule BTG 1640 was determined at different time points (see Table 7).

[4] = 2000 mg/kg bw oral (as free base)
[5] = condition d): 40° C./75% RH, up to six months
[6] = T = 25° C., humidity 60% RH, time 0 (months)
[7] = T = 30° C., humidity 65% RH, time 0 (months)
[8] = T = 40° C., humidity 75% RH, time 0 (months)
[9] = Sprague Dawley, in vivo, po, 10 mg/kg

SMILES	Clinical signs (female CD-1 mice; [4])	Histopathological examination of kidneys (female CD-1 mice; [4])	Stability (in words) [1, 5]	% impurities ([2]; T = 5° C., time 0 (months)) [%]	% impurities [2, 6] [%]	% impurities [2, 7] [%]	% impurities [2, 8] [%]	Impurity profile (in words) [2]	Stability compared with BTG 1640 hydrochloride (in words) ([1]; conditions a)-d))	further results
CN1OC2CCCC(=O)C2C1Cc1ccccc1.Cl (stereo not drawn) [BTG 1640 hydrochloride, reference compound]	Lethargy, ataxia, aggressiveness and vocalization	small foci of acute tubular necrosis in the cortex, balloon degeneration of the epithelium and dilatation of convoluted tubules	strong instability	0.36	0.36	0.36	0.36	unacceptable percentage of impurities		Lethality (female CD-1 mice; 2000 mg/kg bw oral (as free base), three female CD-1 mice, 14 days observation): lethal in two animals out of three; Stability (in words) ([1]; conditions a)-c): 5° C., 25° C./60% RH, 30° C./65% RH, 12 months): good stability; Validity time period ([1]; indicated on the basis of the stability results, preserved at 2-8° C.): 12 months; BTG 1640 free base concentration in plasma ([3]; oral gavage 10 mg/kg (as free base), 5% arabic gum suspension, 300 minutes): 0 µg/mL
CN1OC2CCCC(=O)C2C1Cc1ccccc1.O=C(O)/C=C\C(=O)O (stereo not drawn) [BTG 1640 maleate]			degrades in unacceptable way		0.23	0.23			even worse	Stability (in words) ([1]; condition c) 30° C./65% RH, at sixth month): considerable degradation; Stability (in words) ([1]; conditions a) and b)): acceptable profile
CN1OC2CCCC(=O)C2C1Cc1ccccc1.CS(=O)(=O)O (stereo not drawn) [BTG 1640 methanesulphonate]					0.42	0.42			even worse	Stability (in words) ([1]; conditions b)-d)): begins to degrade already after three months
CN1OC2CCCC(=O)C2C1Cc1ccccc1 [BTG 1640 oxalate, oxalate salt of rel-(3R,3aS,7aS)-3-benzyl-2-methyl-2,3,3a,4,5,6,7,7a-octahydrobenzo[d]isoxazol-4-one]	quickly reversible neurological signs	focal and moderate balloon degeneration of the epithelium in convoluted tubules		0.27	0.27	0.27	0.27	invariable impurity profile		Toxicity compared with hydrochloride (in words) (female CD-1 mice; 2000 mg/kg bw oral, female mice): less toxic; Stability compared with BTG 1640 hydrochloride (in words) [1]: higher stability; Purity % ([1]; T = 5° C.): 99.7%; Purity % ([1]; T = 25° C., humidity 60% RH): 99.7%; Purity % ([1]; T = 30° C., humidity 65% RH): 99.7%; Purity % ([1]; T = 40° C., humidity 75% RH): 99.7%; % impurities ([2]; T = 5° C., time 3 (months)): 0.33%; % impurities ([2]; T = 5° C., time 9 (months)): 0.29%; % impurities ([2]; T = 25° C., humidity 60% RH, time 3 (months)): 0.30%; % impurities ([2]; T = 30° C., humidity 65% RH, time 3 (months)): 0.28%; concentration at 2 minutes [3, 9]: 2050 ng/mL; concentration at 5 minutes [3, 9]: 1870 ng/mL; concentration at 30 minutes [3, 9]: 390 ng/mL; concentration at 300 minutes [3, 9]: 0 ng/mL; Absorption compared with hydrochloride (in words) ([3]; in vivo, po, 10 mg/kg): higher absorption
CN1OC2CCCC(=O)C2C1Cc1ccccc1.O=C(O)CCC(=O)O (stereo not drawn) [BTG 1640 succinate]					0.77	0.77			even worse	Stability (in words) ([1]; all observation conditions a)-d), from the third month): shows degradation
